# Source: patent publication US7714009B2, “Nitrogen-containing fused heterocyclic compounds” (Takeda Pharmaceutical Company Limited, priority 2003, dated 2010)
# Biological target: T1, human CRF receptor (Homo sapiens, UniProt P34998)
# T1 construct: expressed in transfected cells; host or cells: CHO cells (membrane fraction)
# T1 sequence (P34998 24-415): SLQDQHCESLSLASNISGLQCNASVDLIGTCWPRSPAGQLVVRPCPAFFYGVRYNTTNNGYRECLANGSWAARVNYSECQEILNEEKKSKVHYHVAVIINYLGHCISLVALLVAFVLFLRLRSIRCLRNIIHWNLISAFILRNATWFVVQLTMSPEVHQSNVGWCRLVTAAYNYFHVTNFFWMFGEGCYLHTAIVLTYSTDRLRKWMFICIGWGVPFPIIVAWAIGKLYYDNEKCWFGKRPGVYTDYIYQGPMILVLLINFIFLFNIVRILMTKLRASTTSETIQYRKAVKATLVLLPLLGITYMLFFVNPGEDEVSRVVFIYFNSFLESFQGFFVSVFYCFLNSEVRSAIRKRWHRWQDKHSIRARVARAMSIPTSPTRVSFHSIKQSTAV
# Test: Measurement of Corticotropin-Releasing Factor (CRF) Binding Inhibitory Rate
# Conditions: 1000 nM test compound; human CRF receptor expressing CHO cellular membrane fraction; 50 pM 125I-CRF; room temperature 1 hour
# Procedure: Measurement of Corticotropin-Releasing Factor (CRF) Binding Inhibitory Rate
# A receptor binding experiment was carried out using a human CRF receptor expressing CHO cellular membrane fraction and sheep CRF, [^125I]-tyr^0(^125I-CRF). 1000 nM of a test compound was incubated with 1 μg of human CRF receptor expressing CHO cellular membrane fraction and 50 pM of ^125I-CRF in a binding assay buffer (50 mM Tris-HCl, 5 mM EDTA, 10 mM MgCl2, 0.05% CHAPS, 0.1% BSA, 0.5 mM PMSF, […] pepstatin, 20 μg/ml leupeptin, pH 7.5). In addition, for measuring nonspecific binding (NSB), 0.1 μM unlabelled human Urocortin was incubated with 1 μg of human CRF receptor expressing CHO cellular membrane fraction and 50 pM of ^125I-CRF in a binding assay buffer. After a binding reaction was carried out at room temperature for 1 hour, the membrane was entrapped on a glass filter (UniFilter plate GF-C/Perkin Elmer) by suction filtration using a cell harvester (Perkin Elmer), and washed with ice-cooled 50 mM Tris-HCl (pH 7.5). After drying the glass filter, a liquid scintillation cocktail (Microscinti 0, Perkin Elmer) was added, and the radioactivity of ^125I-CRF remaining on a glass filter was measured using Topcount (Perkin Elmer).
# (TB−SB)/(TB−NSB)×100 (SB: radioactivity when a compound is added, TB: maximum binding radioactivity, NSB: nonspecific binding radioactivity) was calculated to obtain a binding inhibitory rate under the presence of 1,000 nM or 100 nM of each test substances.
row,SMILES,inhibition at 1 µM [%]
1,"CCC1CCCCN1c1cccc2nc(Nc3c(C)cc(Br)cc3OC)n(C)c12 (centres unmarked) [Example 183, N-(4-Bromo-2-methoxy-6-methylphenyl)-7-(2-ethyl-1-piperidinyl)-1-methyl-1H-benzimidazol-2-amine]",> 80
2,"COc1ccc(N(c2cccc3nc(Nc4c(C)cc(Cl)cc4OC)n(C)c23)C(C)C)cc1 [Example 145, N^2-(4-chloro-2-methoxy-6-methylphenyl)-N^7-isopropyl-N^7-(4-methoxyphenyl)-1-methyl-1H-benzimidazole-2,7-diamine]",> 80
3,"CCCN(CCC)c1cccc2nc(Nc3c(C)cc(C)cc3C)n(C)c12 [Example 26, N^2-Mesityl-1-methyl-N^7,N^7-dipropyl-1H-benzimidazole-2,7-diamine]",> 80
4,"CCCN(CCC)c1cccc2nc(Nc3cc(OC)c(OC)cc3C)n(C)c12 [Example 46, N^2-(4,5-dimethoxy-2-methylphenyl)-1-methyl-N^7,N^7-dipropyl-1H-benzimidazole-2,7-diamine]",> 80
5,"CCCN(CCC)c1cccc2nc(Nc3c(C)cc(C)cc3Cl)n(C)c12 [Example 42, N^2-(2-chloro-4,6-dimethylphenyl)-1-methyl-N^7,N^7-dipropyl-1H-benzimidazole-2,7-diamine]",> 80
